Data on five molecules can be found in patent US10588921B2, “Drug for the treatment of cholesterol accumulation disorders” (NATIONAL UNIVERSITY CORPORATION KUMAMOTO UNIVERSITY, priority 2013, dated 2020).

Data set [1] deals with NPC-derived HLCs. It is filed as cell-based, human. Particulars: for cholesterol accumulation in NPC-HLCs (filipin staining): 1 mM hydroxypropyl-cyclodextrin, FIG. 18. As for the experimental part: For hepatocyte-like cell (HLC) induction, the culture medium of semi-confluent human iPS cells were switched from the iPS medium to the definitive endoderm differentiation medium containing RPMI1640 supplemented with 2% B27 (Life technologies), 100 ng/m1 Activin A and 1 mM Sodium butyrate (NaB, SIGMA). The NaB concentration is changed in 0.5 mM on day 2. On day 4, the cells were harvested and re-seeded onto Matrigel-coated dishes in hepatic differentiation medium containing DMEM supplemented with 20% KSR, 1 mM glutamine, 1 mM NEAA, 0.1 mM 2-mercaptoethanol (SIGMA), 1% Dimethyl sulfoxide (DMSO, SIGMA). CXCR4 expressions were examined by FACS on day 4. On day 11, the cells were harvested and re-cultured in the hepatic maturation medium containing L15 medium (SIGMA) supplemented with 8.3% FBS, 8.3% tryptose phosphate broth (SIGMA), 10 mM hydrocortisone 21-hemisuccinate (SIGMA), 1 mM insulin (SIGMA), 2 mM glutamine, lOng/ml Hepatocyte growth factor (HGF, R & D) and 20 ng/ml Oncostatin M (OSM, R & D). On day 18, the cells were used for various experiments. For the hydroxypropyl cyclodextrin treatments, HLCs were cultured with 0.1 mM or 1 mM of the hydroxypropyl cyclodextrins for four days. For Annexin and TUNEL stainings, HLCs are cultured for four days and a week from day 18, respectively.
(§1) Alkaline phosphatase staining was performed using the Leukocyte Alkaline Phosphatase kit (SIGMA). For immunocytochemistry, cells were fixed with PBS containing 4% paraformaldehyde for 30 min at 4° C. For the molecules localized in nucleus, samples were treated with 0.2% Triton X-100 for 15 min at room temperature (RT). The cells were washed three times with PBS containing 2% FBS and then incubated overnight at 4° C. in PBS containing 2% FBS with primary antibodies. Nucleuses were stained with Propidium Iodide (PI, WAKO, Japan) and 1 mg/ml Hoechst 33258 (Invitrogen). The list of the primary and secondary antibodies is described in Table 3. For Filipin staining, samples were washed with PBS three times after the fixing and incubated with PBS containing 1.5 mg/ml glycine for 10 min at RT. The samples were then treated with PBS containing 10% FBS and 50 mg/ml Filipin (SIGMA). The data was calculated by UV absorption (360/460) and analyzed with Developer Toolbox software of IN CELL ANALYZER 6000 (GE Healthcare). The number of insoluble p62 granules were counted by IN CELL ANALYZER 6000 (GE Healthcare). To investigate glycogen accumulation, Periodic acid Schiff (PAS) staining of hepatocyte-like cells were performed by PAS staining solution (Muto Pure chemicals, Tokyo, Japan), according to the manufacturer's protocol.
The inventors therefore treated the HLCs derived from normal and NPC-iPS cell lines with a series of 2-hydroxypropyl-cyclodextrins with different cavity sizes, and observed effect of a series of hydroxypropyl-cyclodextrins. HLCs were cultured with 1 mM of the indicated hydroxypropyl-cyclodextrin for 4 days, stained with filipin and analyzed with an IN CELL ANALYSER (GE Healthcare) (FIG. 18).
(§2) The size of HLCs is decreased by the treatments with HPBCD and HPGCD (data not shown). Effects of various concentration of HPBCD and HPGCD in NPC-derived HLCs was observes. HLCs were cultured with HPBCD or HPGCD for 4 days, stained with filipin and analyzed with an IN CELL ANALYSER (GE Healthcare).

Another data set relates to isolated erythrocyte. Particulars: in vitro; cited from earlier work.
In a further data set the test system is rats. Particulars: acute intravenous administration to rats; cited from earlier work.
Data set [2] relates to p62. In words: Count of insoluble p62 granules in HLCs (IN CELL ANALYZER). It is filed as cell-based, human. To be noted: 1 mM HPCD, 4 days; FIG. 24. As for the experimental part: as §1, with “To investigate glycogen accumulation, Periodic acid Schiff (PAS) staining of hepatocyte-like cells were performed by PAS staining solution (Muto Pure chemicals, Tokyo, Japan), according to the manufacturer's protocol.” left out
(§3) HLCs were culture with 1 mM 2-hydroxypropylcyclodextrins (HPCDs) for 4 days, and ATP level, expression levels of LC3 and p62, and insoluble p62 granules were measured.

For data set [3], the system named is NPC-derived HLCs. It is filed as cell-based, human. Particulars: cells treated during HLC differentiation; FIG. 20.
In the next data set the test system is NPC1-defective cells. To be noted: reported; cited from earlier work.
Data set [4] has as its system p62. Briefly: Immunoblot of insoluble p62 in HLCs. In kind it is cell-based, human. To be noted: 1 mM HPCD, 4 days; FIG. 23. The protocol:
(§4) Protein lysates were separated by SDS-PAGE and transferred to PVDF membrane. LC3-I and LCS3-II were detected by anti-LC3 antibody (Cell Signaling). The data are normalized to α-tubulin expression. The HLCs were solved in RIPA buffer and then insoluble p62 was collected as a pellet after the centrifuge of the samples.
as §3

The subject of data set [5] is NPC-derived HLCs. In words: Cell size of HLCs. In kind it is cell-based, human. To be noted: data not shown. As for the experimental part:
The cell sizes of albumin-positive cells was calculated by Developer Toolbox software of IN CELL ANALYZER 6000 (GE Healthcare).
as §2

Data set [6] relates to Npc1 gene-defective (Npc1−/−) mice. Particulars: cited from earlier work.
The subject of another data set is normal mice. In words: Acute toxicity test in normal mice. In kind it is in vivo, mouse. Particulars: 14.4 mM, 19.18 ml/g subcutaneous, 8-week-old normal mice; FIG. 34. The protocol: To confirm the excellent safety of HPGCD, acute toxicity was tested using normal mice. 14.4 mM HPBCD or HPGCD were injected in the amount of 19.18 ml/g into subcutaneous tissues of 8-week-old mice (n=10), and then survival rates were calculated.

The subject of the next data set is LC3. In words: Immunoblot of LC3 expression in HLCs. It is filed as cell-based, human. To be noted: 1 mM HPCD, 4 days; FIG. 22. The protocol:
as §4, §3
A general note: Immunoblotting shows a protein as a band on a membrane.

The next data set relates to NPC child patients. Particulars: intravenous instillation 2500 mg/kg per time, 1 to 3 times per week, more than 1 year; cited from earlier work.
Data set [7] has as its system NPC-derived HLCs. Briefly: Measurement of ATP in HLCs. To be noted: 1 mM HPCD, 4 days; FIG. 21. It is filed as cell-based, human. As for the experimental part: Hepatocyte-like cells derived from the iPSC lines were cultured in DMEM medium in the absence of glucose for 24 hours and were then cultured in the DMEM medium containing 10% FBS and high glucose for 6 hours. ATP was measured by ATP measurement Kit (TOYO INK), according to the manufacturer's protocol.
as §3

For 2-Hydroxypropyl-α-cyclodextrin [HPACD], the “activity on hepatocyte-like cells differentiation-induced from NPC patient-derived iPS cells” value in the data set with NPC-derived HLCs [1] is recorded as “no activity at all”. Besides, the “cholesterol accumulation in NPC-HLCs (filipin staining)” value in the data set on NPC-derived HLCs [1] (4 days) is listed as “did not show any effect on cholesterol accumulation”. Moreover, in the data set with isolated erythrocyte, the “hemolytic activity (order)” value is “HPBCD>HPACD>HPGCD”.
In the case of `OC[C@H]1O[C@@H]2O[C@H]3[C@H](O)[C@@H](O)[C@@H](O[C@H]4[C@H](O)[C@@H](O)[C@@H](O[C@H]5[C@H](O)[C@@H](O)[C@@H](O[C@H]6[C@H](O)[C@@H](O)[C@@H](O[C@H]7[C@H](O)[C@@H](O)[C@@H](O[C@H]8[C@H](O)[C@@H](O)[C@@H](O[C@H]1[C@H](O)[C@H]2O)O[C@@H]8CO)O[C@@H]7CO)O[C@@H]6CO)O[C@@H]5CO)O[C@@H]4CO)O[C@@H]3CO` [β-cyclodextrin], the “intravenous dose showing lethality to 50% of population (LD50 value)” value in the data set on rats is on record as 788 mg/kg.
For `OC[C@H]1O[C@@H]2O[C@H]3[C@H](O)[C@@H](O)[C@@H](O[C@H]4[C@H](O)[C@@H](O)[C@@H](O[C@H]5[C@H](O)[C@@H](O)[C@@H](O[C@H]6[C@H](O)[C@@H](O)[C@@H](O[C@H]7[C@H](O)[C@@H](O)[C@@H](O[C@H]1[C@H](O)[C@H]2O)O[C@@H]7CO)O[C@@H]6CO)O[C@@H]5CO)O[C@@H]4CO)O[C@@H]3CO` [α-cyclodextrin], in the data set on rats, the “intravenous dose showing lethality to 50% of population (LD50 value)” value was 1000 mg/kg.
`OC[C@H]1O[C@@H]2O[C@H]3[C@H](O)[C@@H](O)[C@@H](O[C@H]4[C@H](O)[C@@H](O)[C@@H](O[C@H]5[C@H](O)[C@@H](O)[C@@H](O[C@H]6[C@H](O)[C@@H](O)[C@@H](O[C@H]7[C@H](O)[C@@H](O)[C@@H](O[C@H]8[C@H](O)[C@@H](O)[C@@H](O[C@H]9[C@H](O)[C@@H](O)[C@@H](O[C@H]1[C@H](O)[C@H]2O)O[C@@H]9CO)O[C@@H]8CO)O[C@@H]7CO)O[C@@H]6CO)O[C@@H]5CO)O[C@@H]4CO)O[C@@H]3CO` [γ-cyclodextrin]: the “intravenous dose showing lethality to 50% of population (LD50 value)” value in the data set with rats is on record as above 3750 mg/kg.
For `CC(O)COC[C@H]1O[C@@H]2O[C@H]3[C@H](O)[C@@H](O)[C@@H](O[C@H]4[C@H](O)[C@@H](O)[C@@H](O[C@H]5[C@H](O)[C@@H](O)[C@@H](O[C@H]6[C@H](O)[C@@H](O)[C@@H](O[C@H]7[C@H](O)[C@@H](O)[C@@H](O[C@H]8[C@H](O)[C@@H](O)[C@@H](O[C@H]1[C@H](O)[C@H]2O)O[C@@H]8COCC(C)O)O[C@@H]7COCC(C)O)O[C@@H]6COCC(C)O)O[C@@H]5COCC(C)O)O[C@@H]4COCC(C)O)O[C@@H]3COCC(C)O` (stereo partly drawn) [HPBCD, 2-hydroxypropyl-β-cyclodextrin], the “proportion of HLCs carrying more than 40 granules of insoluble p62 aggregation” value with p62 [2] is reported as “greatly reduced”. For the same molecule, in the data set on NPC-derived HLCs [3], the “free cholesterol accumulation, treatment during HLC differentiation” value is recorded as “effective at the intermediate stages in hepatic differentiation”. Further, in the data set on NPC-derived HLCs [1], the “cholesterol accumulated in hepatocyte-like cells derived from NPC” value is listed as “removed cholesterol accumulated in hepatocyte-like cells derived from NPC” and the “function of the hepatocyte-like cells” value was “recovered the function of the hepatocyte-like cells”. Further, in the data set with NPC-derived HLCs [1] (4 days), the “cholesterol accumulation in NPC-HLCs (filipin staining)” value is “significantly decreased”. The “cholesterol accumulation in NPC-derived HLCs (filipin staining)” value in the data set on NPC-derived HLCs [1] (low concentration 100 μM, 4 days, FIG. 19) was “ineffective for reducing cholesterol accumulation”. For the same molecule, in the data set on isolated erythrocyte, the “hemolytic activity (order)” value is given as “HPBCD>HPACD>HPGCD”. Besides, in the data set with NPC1-defective cells, the “cholesterol accumulation in NPC1-defective cells” value is given as “effective for reducing of cholesterol accumulation”. Also, the “amount of insoluble p62” value with p62 [4] is on record as “reduced the amount of insoluble p62”. Also, the “size of HLCs” value in the data set with NPC-derived HLCs [5] was “decreased”. For the same molecule, in data set [6] (directly administered into the brain), the “improving effect compared with systemic administration” value is recorded as “increased a few hundreds times”. Further, the “medical state or survival” value in data set [6] (intravenous administration) is listed as “effective in improving the medical state or prolonging survival”. For the same molecule, in the data set on normal mice, the “survival after injection (acute toxicity)” value is on record as “Almost all mice injected with HPBCD dies up to 72 hours after injection”. Moreover, the “expression level of LC3” value in the data set on LC3 is reported as “recovered to normal levels”. In the data set with NPC child patients, the nervous symptom result is reported as “has not been improved yet”; the “splenohepatomegaly and brain wave” value is “certain effect of reduction of splenohepatomegaly and improvement in a brain wave”. In the data set on NPC-derived HLCs [7], the ATP level entry was “recovered”.
